Reference: patent US7785583B2, “In situ maturation of dendritic cells” (Argos Therapeutics, Inc., priority 2002, dated 2010)

What was measured:
[1] = tested on: immature DC injected into the ear pinna; assay: Migration of CFSE-labelled injected DC to the draining auricular lymph node (flow cytometry); type: in vivo, mice (C57BL/6); settings: interval between adjuvant application and DC injection extended to 4 hours; determined as in FIG. 3
Procedure: FIG. 3 depicts flow cytometry analysis of the migration of DC to the draining lymph nodes. Immature or mature DC were transfected with OVA mRNA and incubated with CFSE. Cells were washed and 3×10^5 DC were injected into the ear pinna. […] United States of America). Twenty-four hours post […] of the DC, the draining auricular lymph node was dissected, a cell suspension generated, and cells were analyzed by flow cytometry. To identify the DC subset, cells gated for CD11c^+ granular cells (upper panels) were analyzed for class II expression and CFSE content (lower panels). Injected DC are class II^high CFSE^+ (UR quadroon) whereas the class II^highCFSE^− represent the resident and newly arrived, endogenous, DC (UL quadroon). The percentages shown in the UR quadroons constitute the percentage of CFSE^+ DC injected into the ear found in the lymph node.
Marrow from tibias and femurs of C57BL/6 mice were harvested followed by treatment of the precursors with ammonium chloride Tris buffer for 3 min at 37° C. to deplete the red blood cells. The precursors were plated in RPMI-5% FCS with GM-CSF (15 ng/ml) and IL-4 (10 ng/ml). GM-CSF-containing supernatant was harvested after 24 h capillary culture from GM-CSF producing melanoma cell line (F10.9/GM-CSF) and IL-4 was obtained from Peprotech (Rocky Hill, N.J., United States of America). The concentration of GM-CSF used was determined by ELISA. […]

[2] = tested on: OVA-expressing EL-4 cells; assay: Induction of OVA-specific CTL in mice immunized with OVA mRNA transfected DC (standard cytotoxicity assay); type: in vivo, mice (C57BL/6)
Procedure: FIG. 4 is a graph depicting the induction of OVA CTL in mice immunized with OVA mRNA transfected DC. Mice were immunized as described in FIG. 3 except that DC were not stained with CFSE. Splenocytes were harvested after 8 days and either analyzed directly for CTL (left panel) or incubated for 5 days in the presence of OVA mRNA transfected DC (right panel). CTL activity was determined using a standard cytotoxicity assay and OVA-expressing EL-4 cells, and EL-4 cells as targets. (iDC: immature DC; mDC: mature DC; solid gray square: iDC and OVA-expressing EL-4 cells; solid black oval: […] adjuvant and OVA-expressing EL-4 cells; solid black square: mDC and OVA-expressing EL-4 cells; open gray square: iDC and EL4 cells; open black oval: […] adjuvant and EL4 cells; open black square: mDC and EL4 cells). FIG. 5 is a graph depicting the induction of OVA specific CTL with immature DC during in situ maturation with Imiquimod (sold under the trademark […] by 3M of St. Paul, Minn., United States of America) and poly arginine. Experimental details are as described for FIG. 4. Here, in addition to […] adjuvant, Imiquimod ([…] brand) and poly arginine (poly-arg) were used to induce local “inflammation” prior to immunization with the OVA mRNA transfected immature DC. The […] clinically approved cream formulation of Imiquimod was applied to the ear surface 15 minutes prior to DC injection. Poly-arg was injected into the ear pinna (50 μl; 100 μg/ml) 15 minutes prior to DC injection. (open square: iDC; solid circle: […] adjuvant; solid triangle: […] adjuvant; open triangle: iDC+poly-arginine; solid square: mDC). FIG. 6 is a graph depicting the induction of OVA specific CTL with immature DC during in situ maturation with Imiquimod ([…] brand). […] Antigen loaded immature or mature DC were injected into the ear pinna and mice were evaluated for (a) migration of the DC to the draining auricular lymph node or (b) induction of OVA CTL. […] See […], Mohr H., “A fluorescence-based assay for quantitation of lymphokine-activated killer cell activity”, J Immunol Methods (1989) 119:45-51.

[3] = FIG. 5, injection site pretreated 15 minutes prior to injection of OVA mRNA transfected immature DC

Molecule	migration, % of the injected DC [1] [%]	CTL response (OVA-specific CTL) [2, 3]	CTL response (OVA-specific CTL) ([2]; FIG. 6, Imiquimod (ALDARA brand) applied 4 hours before injection of OVA mRNA transfected immature DC)
CC(C)Cn1cnc2c(N)nc3ccccc3c21 [Imiquimod]	9.2	almost as effective as ADJUPRIME™ adjuvant	more potent CTL response than the ex vivo matured DC
poly arginine [poly-arg]		the effect of poly-arg is small	
